Reference: the supplement of paper PMC12463676, “Small-molecule dissolution of stress granules by redox modulation benefits ALS models” (Nature Chemical Biology, 2025)

Columns and labels:
[1] = compound: O=[As]([O-])(O)O.[K+] [potassium arsenate]; assay: thermal stability z-score vs DMSO; higher = more thermally stabilized by treatment; details: HeLa; arsenate concentration 1 mM
Procedure: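 Cellular thermal proteome profiling in HeLa cells treated with 1 mM arsenate for 1 h (DMSO pretreatment), heated to ten temperatures (37-66.3 °C). Soluble protein was quantified by TMT mass spectrometry relative to DMSO controls; the thermal stability score was transformed to a z-score; mean of n = 3 experiments.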

[2] = compound: NC(=O)CCCCC1CCSS1 [lipoamide]; assay: as above; details: HeLa, lipoamide concentration 100 µM
Procedure: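 Cellular thermal proteome profiling in HeLa cells. Cells were treated with 100 µM lipoamide for 1 h, with or without 1 mM arsenate for a further 1 h, then heated to ten temperatures (37-66.3 °C), and soluble protein was quantified by TMT mass spectrometry relative to 0.1% DMSO controls. The thermal stability score (sum of log2 fold changes minus the abundance score) was transformed to a z-score; mean of n = 3 experiments.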

[3] = arsenate co-treatment: 1 mM arsenate 1 h
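Further: each temperature applied for 3 min, abundance score taken as mean log2 fold change at the two lowest temperatures, z-score obtained by mean subtraction and division by SD.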

Target: SNRPD3 (UniProt P62318)
UniProt P62318, sequence (P62318 whole entry): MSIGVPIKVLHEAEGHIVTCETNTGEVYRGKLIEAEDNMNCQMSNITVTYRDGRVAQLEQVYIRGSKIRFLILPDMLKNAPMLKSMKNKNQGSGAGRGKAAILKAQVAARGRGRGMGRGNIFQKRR
- thermal stability z-score [1]: 0.399
- thermal stability z-score [2, 3]: 0.93
- thermal stability z-score ([2]; arsenate co-treatment: none): 0.207

Target: PDS5B (UniProt Q9NTI5)
- thermal stability z-score [1]: -0.362
- thermal stability z-score [2, 3]: 0.839
- thermal stability z-score ([2]; arsenate co-treatment: none): 0.426

Target: USP9X (UniProt Q93008)
- thermal stability z-score [1]: 0.115
- thermal stability z-score [2, 3]: -0.133
- thermal stability z-score ([2]; arsenate co-treatment: none): -0.258

Target: RAB9A (UniProt P51151)
- thermal stability z-score [1]: 0.801
- thermal stability z-score [2, 3]: 0.654
- thermal stability z-score ([2]; arsenate co-treatment: none): 0.721

Target: PTS (UniProt Q03393)
- thermal stability z-score [1]: 0.981
- thermal stability z-score [2, 3]: 0.382
- thermal stability z-score ([2]; arsenate co-treatment: none): -0.301

Target: LMBRD2 (UniProt Q68DH5)
- thermal stability z-score [1]: -0.111
- thermal stability z-score [2, 3]: -0.904
- thermal stability z-score ([2]; arsenate co-treatment: none): -0.0118

Target: SETDB1 (UniProt Q15047)
- thermal stability z-score [1]: -0.254
- thermal stability z-score [2, 3]: -0.239
- thermal stability z-score ([2]; arsenate co-treatment: none): -0.253

Target: CDK12 (UniProt Q9NYV4)
- thermal stability z-score [1]: -0.614
- thermal stability z-score [2, 3]: -0.233
- thermal stability z-score ([2]; arsenate co-treatment: none): 0.0238

Target: RPS11 (UniProt P62280)
- thermal stability z-score [1]: -1.11
- thermal stability z-score [2, 3]: 0.621
- thermal stability z-score ([2]; arsenate co-treatment: none): 0.352

Target: RCL1 (UniProt Q9Y2P8)
- thermal stability z-score [1]: 2.29
- thermal stability z-score [2, 3]: 1.4
- thermal stability z-score ([2]; arsenate co-treatment: none): 0.192

Target: EFEMP1 (UniProt Q12805)
UniProt Q12805, sequence (Q12805 whole entry): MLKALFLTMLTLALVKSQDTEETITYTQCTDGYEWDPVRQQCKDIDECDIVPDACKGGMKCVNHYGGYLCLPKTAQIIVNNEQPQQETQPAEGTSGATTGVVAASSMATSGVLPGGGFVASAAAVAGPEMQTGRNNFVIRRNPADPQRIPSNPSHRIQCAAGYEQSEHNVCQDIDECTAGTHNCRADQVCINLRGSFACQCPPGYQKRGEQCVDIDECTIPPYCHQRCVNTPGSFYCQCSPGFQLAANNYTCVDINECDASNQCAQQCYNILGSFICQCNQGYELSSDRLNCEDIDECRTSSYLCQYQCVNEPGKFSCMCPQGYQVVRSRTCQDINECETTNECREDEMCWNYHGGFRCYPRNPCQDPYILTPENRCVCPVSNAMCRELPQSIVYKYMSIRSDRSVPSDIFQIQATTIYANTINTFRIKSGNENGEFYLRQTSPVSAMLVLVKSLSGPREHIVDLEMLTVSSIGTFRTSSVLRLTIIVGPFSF
- thermal stability z-score [1]: 0.134
- thermal stability z-score [2, 3]: -3.26
- thermal stability z-score ([2]; arsenate co-treatment: none): -2.96

Target: SAC3D1 (UniProt A6NKF1)
- thermal stability z-score [1]: -1.27
- thermal stability z-score [2, 3]: -1.55
- thermal stability z-score ([2]; arsenate co-treatment: none): -1.63

Target: CUL4A (UniProt Q13619)
- thermal stability z-score [1]: -0.0896
- thermal stability z-score [2, 3]: 0.0347
- thermal stability z-score ([2]; arsenate co-treatment: none): -0.214

Target: NPEPPS (UniProt P55786)
- thermal stability z-score [1]: 0.725
- thermal stability z-score [2, 3]: 0.502
- thermal stability z-score ([2]; arsenate co-treatment: none): 0.202

Target: NUBP2 (UniProt Q9Y5Y2)
UniProt Q9Y5Y2, sequence (Q9Y5Y2 whole entry): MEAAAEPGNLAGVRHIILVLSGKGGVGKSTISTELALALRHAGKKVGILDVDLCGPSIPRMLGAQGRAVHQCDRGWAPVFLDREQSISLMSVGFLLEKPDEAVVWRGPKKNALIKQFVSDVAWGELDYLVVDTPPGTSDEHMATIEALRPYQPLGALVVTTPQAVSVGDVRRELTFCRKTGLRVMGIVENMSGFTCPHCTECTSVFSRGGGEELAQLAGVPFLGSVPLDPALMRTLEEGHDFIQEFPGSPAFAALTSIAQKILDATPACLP
- thermal stability z-score [1]: -0.461
- thermal stability z-score [2, 3]: 0.35
- thermal stability z-score ([2]; arsenate co-treatment: none): -0.855

Target: CSNK2A2 (UniProt P19784)
- thermal stability z-score [1]: 0.00534
- thermal stability z-score [2, 3]: 0.339
- thermal stability z-score ([2]; arsenate co-treatment: none): 0.183

Target: NFYC (UniProt Q13952)
- thermal stability z-score [1]: -0.0961
- thermal stability z-score [2, 3]: 0.024
- thermal stability z-score ([2]; arsenate co-treatment: none): 0.385

Target: ATAD1 (UniProt Q8NBU5)
- thermal stability z-score [1]: 0.641
- thermal stability z-score [2, 3]: 0.216
- thermal stability z-score ([2]; arsenate co-treatment: none): 0.454

Target: TBC1D17 (UniProt Q9HA65)
- thermal stability z-score [1]: -0.0293
- thermal stability z-score [2, 3]: -0.114
- thermal stability z-score ([2]; arsenate co-treatment: none): -0.107

Target: XAB2 (UniProt Q9HCS7)
- thermal stability z-score [1]: 0.256
- thermal stability z-score [2, 3]: -0.104
- thermal stability z-score ([2]; arsenate co-treatment: none): -0.113

Target: MGME1 (UniProt Q9BQP7)
- thermal stability z-score [1]: -0.00686
- thermal stability z-score [2, 3]: 0.201
- thermal stability z-score ([2]; arsenate co-treatment: none): 0.117

Target: BZW2 (UniProt Q9Y6E2)
- thermal stability z-score [1]: -0.183
- thermal stability z-score [2, 3]: 0.428
- thermal stability z-score ([2]; arsenate co-treatment: none): 0.313

Target: RASAL2 (UniProt Q9UJF2)
UniProt Q9UJF2, sequence (Q9UJF2 whole entry): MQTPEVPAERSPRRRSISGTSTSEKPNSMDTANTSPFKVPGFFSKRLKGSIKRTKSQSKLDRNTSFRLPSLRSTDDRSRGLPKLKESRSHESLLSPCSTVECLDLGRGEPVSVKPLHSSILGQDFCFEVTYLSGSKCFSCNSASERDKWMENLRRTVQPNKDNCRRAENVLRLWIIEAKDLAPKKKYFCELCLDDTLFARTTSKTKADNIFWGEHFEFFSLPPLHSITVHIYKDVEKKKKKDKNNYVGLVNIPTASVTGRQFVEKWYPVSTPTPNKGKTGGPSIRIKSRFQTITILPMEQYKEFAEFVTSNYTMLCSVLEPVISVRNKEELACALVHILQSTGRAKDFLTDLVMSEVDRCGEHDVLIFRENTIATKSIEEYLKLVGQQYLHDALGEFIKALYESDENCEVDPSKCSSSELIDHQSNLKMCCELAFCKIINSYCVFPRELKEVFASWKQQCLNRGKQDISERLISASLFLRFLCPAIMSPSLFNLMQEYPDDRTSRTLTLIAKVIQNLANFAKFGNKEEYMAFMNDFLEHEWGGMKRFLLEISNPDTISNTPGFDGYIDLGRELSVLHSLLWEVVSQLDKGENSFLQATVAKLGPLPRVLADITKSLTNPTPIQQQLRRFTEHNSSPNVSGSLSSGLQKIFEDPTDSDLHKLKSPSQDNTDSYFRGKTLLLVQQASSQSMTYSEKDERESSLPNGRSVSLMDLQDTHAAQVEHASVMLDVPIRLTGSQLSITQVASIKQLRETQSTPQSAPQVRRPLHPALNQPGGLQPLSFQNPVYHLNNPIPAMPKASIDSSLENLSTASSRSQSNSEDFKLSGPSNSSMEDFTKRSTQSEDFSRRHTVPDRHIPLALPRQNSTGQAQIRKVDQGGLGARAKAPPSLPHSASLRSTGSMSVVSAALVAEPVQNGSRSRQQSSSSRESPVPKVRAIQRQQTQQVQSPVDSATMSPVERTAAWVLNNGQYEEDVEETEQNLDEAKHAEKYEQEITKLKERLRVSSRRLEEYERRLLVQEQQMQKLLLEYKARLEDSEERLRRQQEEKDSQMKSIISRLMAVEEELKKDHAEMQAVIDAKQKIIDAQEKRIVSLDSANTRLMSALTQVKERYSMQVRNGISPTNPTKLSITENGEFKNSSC
- thermal stability z-score [1]: -0.227
- thermal stability z-score [2, 3]: -0.126
- thermal stability z-score ([2]; arsenate co-treatment: none): 0.0905

Target: TMEM9 (UniProt Q9P0T7)
- thermal stability z-score [1]: -0.267
- thermal stability z-score [2, 3]: -2.36
- thermal stability z-score ([2]; arsenate co-treatment: none): -2

Target: NACA
- thermal stability z-score [1]: 0.508
- thermal stability z-score [2, 3]: 0.468
- thermal stability z-score ([2]; arsenate co-treatment: none): 0.47

Target: TSPAN4 (UniProt O14817)
UniProt O14817, sequence (O14817 whole entry): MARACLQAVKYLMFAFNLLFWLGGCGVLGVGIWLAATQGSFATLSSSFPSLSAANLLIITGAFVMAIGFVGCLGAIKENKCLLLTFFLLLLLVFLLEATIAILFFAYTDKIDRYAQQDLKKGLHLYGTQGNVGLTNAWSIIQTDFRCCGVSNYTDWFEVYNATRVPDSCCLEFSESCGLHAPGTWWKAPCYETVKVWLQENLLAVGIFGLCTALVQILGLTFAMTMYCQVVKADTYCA
- thermal stability z-score [1]: 0.304
- thermal stability z-score [2, 3]: -0.0469
- thermal stability z-score ([2]; arsenate co-treatment: none): 0.15

Target: PAN3 (UniProt Q58A45)
UniProt Q58A45, sequence (Q58A45 whole entry): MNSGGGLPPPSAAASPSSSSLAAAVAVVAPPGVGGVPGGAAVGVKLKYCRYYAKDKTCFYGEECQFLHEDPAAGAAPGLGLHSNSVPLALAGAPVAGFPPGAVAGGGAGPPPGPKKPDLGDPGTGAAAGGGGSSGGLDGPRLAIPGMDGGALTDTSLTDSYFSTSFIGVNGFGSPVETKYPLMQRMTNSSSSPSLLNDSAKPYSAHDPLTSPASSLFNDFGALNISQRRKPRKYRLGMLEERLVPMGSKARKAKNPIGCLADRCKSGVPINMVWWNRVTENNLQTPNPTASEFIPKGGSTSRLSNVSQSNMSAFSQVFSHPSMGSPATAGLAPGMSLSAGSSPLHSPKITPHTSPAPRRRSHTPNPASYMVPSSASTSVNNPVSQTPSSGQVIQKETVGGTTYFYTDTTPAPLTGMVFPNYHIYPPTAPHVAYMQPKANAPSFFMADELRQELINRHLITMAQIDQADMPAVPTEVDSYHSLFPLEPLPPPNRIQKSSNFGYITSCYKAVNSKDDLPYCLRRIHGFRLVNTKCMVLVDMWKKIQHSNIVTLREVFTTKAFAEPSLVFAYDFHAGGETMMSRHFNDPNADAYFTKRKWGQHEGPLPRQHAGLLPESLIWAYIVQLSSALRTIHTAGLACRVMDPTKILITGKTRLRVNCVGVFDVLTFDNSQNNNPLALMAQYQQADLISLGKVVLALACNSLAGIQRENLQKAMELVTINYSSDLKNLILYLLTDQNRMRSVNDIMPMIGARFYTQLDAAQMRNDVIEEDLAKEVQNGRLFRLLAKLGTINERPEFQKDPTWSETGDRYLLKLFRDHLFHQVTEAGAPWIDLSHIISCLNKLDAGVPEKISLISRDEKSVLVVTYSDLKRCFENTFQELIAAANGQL
- thermal stability z-score [1]: -0.257
- thermal stability z-score [2, 3]: -0.038
- thermal stability z-score ([2]; arsenate co-treatment: none): 0.0344

Target: SSSCA1 (UniProt O60232)
UniProt O60232, sequence (O60232 whole entry): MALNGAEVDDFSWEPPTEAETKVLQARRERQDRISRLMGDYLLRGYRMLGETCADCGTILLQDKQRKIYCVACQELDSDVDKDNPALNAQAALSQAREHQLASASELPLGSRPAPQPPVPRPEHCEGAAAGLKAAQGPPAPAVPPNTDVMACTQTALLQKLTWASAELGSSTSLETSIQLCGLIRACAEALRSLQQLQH
- thermal stability z-score [1]: 0.0653
- thermal stability z-score [2, 3]: 1.33
- thermal stability z-score ([2]; arsenate co-treatment: none): 1.12

Target: PSMA1 (UniProt P25786)
UniProt P25786, sequence (P25786 whole entry): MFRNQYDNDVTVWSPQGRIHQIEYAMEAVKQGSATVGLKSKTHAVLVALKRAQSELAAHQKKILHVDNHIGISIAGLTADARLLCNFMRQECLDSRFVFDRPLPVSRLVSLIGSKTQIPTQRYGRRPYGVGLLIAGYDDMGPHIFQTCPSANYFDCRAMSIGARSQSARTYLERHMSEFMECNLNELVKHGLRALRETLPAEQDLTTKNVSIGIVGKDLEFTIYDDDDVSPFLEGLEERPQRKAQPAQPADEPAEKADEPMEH
- thermal stability z-score [1]: 0.373
- thermal stability z-score [2, 3]: 0.629
- thermal stability z-score ([2]; arsenate co-treatment: none): 0.284

Target: DPCD (UniProt Q9BVM2)
- thermal stability z-score [1]: 0.0166
- thermal stability z-score [2, 3]: -0.929
- thermal stability z-score ([2]; arsenate co-treatment: none): -0.513

Target: PLEKHA5 (UniProt Q9HAU0)
- thermal stability z-score [1]: 0.0794
- thermal stability z-score [2, 3]: 0.191
- thermal stability z-score ([2]; arsenate co-treatment: none): 0.254

Target: EEF1G (UniProt P26641)
UniProt P26641, sequence (P26641 whole entry): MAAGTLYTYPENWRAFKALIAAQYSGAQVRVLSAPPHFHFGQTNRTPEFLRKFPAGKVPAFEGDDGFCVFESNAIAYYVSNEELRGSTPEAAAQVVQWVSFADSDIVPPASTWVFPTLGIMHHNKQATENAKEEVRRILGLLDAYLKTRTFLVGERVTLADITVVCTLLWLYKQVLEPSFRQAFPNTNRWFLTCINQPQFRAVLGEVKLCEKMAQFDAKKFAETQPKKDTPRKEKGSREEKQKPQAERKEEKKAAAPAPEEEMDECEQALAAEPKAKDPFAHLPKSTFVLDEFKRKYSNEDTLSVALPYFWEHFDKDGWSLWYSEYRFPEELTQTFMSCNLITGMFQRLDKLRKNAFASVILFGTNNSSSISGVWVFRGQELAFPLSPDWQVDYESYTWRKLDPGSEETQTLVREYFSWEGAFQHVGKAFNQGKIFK
- thermal stability z-score [1]: 0.215
- thermal stability z-score [2, 3]: 0.0213
- thermal stability z-score ([2]; arsenate co-treatment: none): 0.149

Target: NFKB2 (UniProt Q00653)
- thermal stability z-score [1]: 0.523
- thermal stability z-score [2, 3]: -0.498
- thermal stability z-score ([2]; arsenate co-treatment: none): 0.158

Target: MRFAP1 (UniProt Q9Y605)
UniProt Q9Y605, sequence (Q9Y605 whole entry): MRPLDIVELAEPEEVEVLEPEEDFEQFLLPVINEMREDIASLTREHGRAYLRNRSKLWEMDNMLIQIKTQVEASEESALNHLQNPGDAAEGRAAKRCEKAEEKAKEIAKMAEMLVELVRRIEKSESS
- thermal stability z-score [1]: -0.23
- thermal stability z-score [2, 3]: 0.86
- thermal stability z-score ([2]; arsenate co-treatment: none): -0.215

Target: HDHD3 (UniProt Q9BSH5)
UniProt Q9BSH5, sequence (Q9BSH5 whole entry): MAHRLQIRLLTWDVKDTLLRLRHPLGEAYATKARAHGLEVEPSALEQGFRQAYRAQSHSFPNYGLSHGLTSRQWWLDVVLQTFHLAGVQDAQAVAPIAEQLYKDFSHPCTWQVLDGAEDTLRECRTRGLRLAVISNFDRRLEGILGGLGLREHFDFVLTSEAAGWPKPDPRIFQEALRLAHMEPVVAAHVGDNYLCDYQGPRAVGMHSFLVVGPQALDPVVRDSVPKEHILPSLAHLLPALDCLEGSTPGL
- thermal stability z-score [1]: -2.27
- thermal stability z-score [2, 3]: -0.136
- thermal stability z-score ([2]; arsenate co-treatment: none): -0.867

Target: WDR45 (UniProt Q9Y484)
UniProt Q9Y484, sequence (Q9Y484 whole entry): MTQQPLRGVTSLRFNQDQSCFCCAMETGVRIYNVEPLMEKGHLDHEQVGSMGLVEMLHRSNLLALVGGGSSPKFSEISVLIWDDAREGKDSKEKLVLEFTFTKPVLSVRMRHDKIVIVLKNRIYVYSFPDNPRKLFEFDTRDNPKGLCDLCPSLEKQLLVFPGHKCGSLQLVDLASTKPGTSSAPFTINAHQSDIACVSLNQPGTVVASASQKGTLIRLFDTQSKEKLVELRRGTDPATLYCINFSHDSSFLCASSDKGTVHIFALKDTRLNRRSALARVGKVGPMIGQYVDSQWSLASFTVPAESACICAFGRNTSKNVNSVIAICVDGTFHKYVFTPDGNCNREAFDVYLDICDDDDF
- thermal stability z-score [1]: 0.292
- thermal stability z-score [2, 3]: -0.0374
- thermal stability z-score ([2]; arsenate co-treatment: none): 0.11
